{
  "source": "patent US11708348B2",
  "about": "“Protease inhibitors for treatment of coronavirus infections” (The Scripps Research Institute, priority 2021, dated 2023)",
  "data": [
    {"tested_on": "SARS-CoV-2 strain USA-WA1/2020", "experiment": "microbe, parasite or virus in culture", "format": "cell-based", "conditions": "Severe acute respiratory syndrome coronavirus 2, HeLa-ACE2, 24 h, HeLa-ACE2 cells, SARS-CoV-2 infection, 24 h; class symbols; read-out: EC50, uM (Hela)", "units": {"EC50": "µM"}, "values": [
      {"compound": "COc1ccc(C(C)=O)cc1CC(=O)N[C@@H](CC(C)C)C(=O)N[C@@H](C[C@@H]1CCNC1=O)C(=O)COc1c(F)c(F)cc(F)c1F", "note": "[Compound 154, (S)-2-(2-(5-acetyl-2-methoxyphenyl)acetamido)-4-methyl-N—((S)-3-oxo-1-((S)-2-oxopyrrolidin-3-yl)-4-(2,3,5,6-tetrafluorophenoxy)butan-2-yl)pentanamide]", "EC50": "< 0.05"},
      {"compound": "CC(C)C[C@H](NC(=O)c1ccccc1)C(=O)N[C@@H](C[C@@H]1CCNC1=O)C(=O)COc1c(F)c(F)cc(F)c1F", "note": "[Compound 9, N-((S)-4-methyl-1-oxo-1-(((S)-3-oxo-1-((S)-2-oxopyrrolidin-3-yl)-4-(2,3,5,6-tetrafluorophenoxy)butan-2-yl)amino)pentan-2-yl)benzamide]", "EC50": "0.05 to 0.2"},
      {"compound": "CC[C@@H](OC)C(=O)N[C@@H](CC(C)C)C(=O)N[C@@H](C[C@@H]1CCNC1=O)C(=O)COC(F)(F)F", "note": "[Compound 337, (S)-2-((R)-2-methoxybutanamido)-4-methyl-N-((S)-3-oxo-1-((S)-2-oxopyrrolidin-3-yl)-4-(trifluoromethoxy)butan-2-yl)pentanamide]", "EC50": "0.05 to 0.2"},
      {"compound": "Cc1ccccc1NC(=O)C(=O)N[C@@H](CC1CCCCC1)C(=O)N[C@@H](C[C@@H]1CCNC1=O)C(=O)COc1c(F)c(F)cc(F)c1F", "note": "[Compound 93, N1-((S)-3-cyclohexyl-1-oxo-1-(((S)-3-oxo-1-((S)-2-oxopyrrolidin-3-yl)-4-(2,3,5,6-tetrafluorophenoxy)butan-2-yl)amino)propan-2-yl)-N2-(o-tolyl)oxalamide]", "EC50": "< 0.05"},
      {"compound": "O=C1NCC[C@H]1C[C@H](NC(=O)[C@@H]1CC2(CC2)CN1C(=O)[C@H](O)C(F)(F)F)C(=O)COC(F)(F)F", "note": "[Compound 385, (S)-N-((S)-3-oxo-1-((S)-2-oxopyrrolidin-3-yl)-4-(trifluoromethoxy)butan-2-yl)-5-((S)-3,3,3-trifluoro-2-hydroxypropanoyl)-5-azaspiro[2.4]heptane-6-carboxamide]", "EC50": "0.05 to 0.2"},
      {"compound": "CC(C)C[C@H](NC(=O)C(=O)Nc1ccccc1F)C(=O)N[C@@H](C[C@@H]1CCCNC1=O)C(=O)COC(F)(F)F", "note": "[Compound 219, N^1-(2-fluorophenyl)-N^2—((S)-4-methyl-1-oxo-1-(((S)-3-oxo-1-((S)-2-oxopiperidin-3-yl)-4-(trifluoromethoxy)butan-2-yl)amino)pentan-2-yl)oxalamide]", "EC50": "< 0.05"},
      {"compound": "CC(C)C[C@H](NC(=O)C(=O)NC1(c2ccccc2F)CC1)C(=O)N[C@@H](C[C@@H]1CCNC1=O)C(=O)COC(F)(F)F", "note": "[Compound 216, Nl-(1-(2-fluorophenyl)-cyclopropyl)-N2-((S)-4-methyl-1-oxo-1-(((S)-3-oxo-1-((S)-2-oxopyrrolidin-3-yl)-4-(trifluoromethoxy)butan-2-yl)amino)pentan-2-yl)oxalamide]", "EC50": "< 0.05"},
      {"compound": "O=C(Nc1ccccc1F)C(=O)N[C@@H](CC1CCCC1(F)F)C(=O)N[C@@H](C[C@@H]1CCNC1=O)C(=O)COC(F)(F)F", "note": "(stereo partly drawn) [Compound 227, N1-((2S)-3-(2,2-difluoro-cyclopentyl)-1-oxo-1-(((S)-3-oxo-1-((S)-2-oxopyrrolidin-3-yl)-4-(trifluoromethoxy)butan-2-yl)amino)propan-2-yl)-N2-(2-fluorophenyl)-oxalamide]", "EC50": "< 0.05"}
    ]},
    {"tested_on": "SARS-CoV-2 strain USA-WA1/2020", "experiment": "microbe, parasite or virus in culture", "format": "cell-based", "conditions": "Severe acute respiratory syndrome coronavirus 2, HeLa-ACE2, 24 h, HeLa-ACE2 cells, SARS-CoV-2 infection, 24 h; read-out: EC50, uM (Hela)", "units": {"EC50": "µM"}, "values": [
      {"compound": "CC(C)(C)C[C@H](NC(=O)C(=O)Nc1ccccc1F)C(=O)N[C@@H](C[C@@H]1CCNC1=O)C(=O)COC(F)(F)F", "note": "[Compound 528, N1-((S)-4,4-dimethyl-1-oxo-1-(((S)-3-oxo-1-((S)-2-oxopyrrolidin-3-yl)-4-(trifluoromethoxy)butan-2-yl)amino)pentan-2-yl)-N2-(2-fluorophenyl)-oxalamide]", "EC50": "< 0.05"},
      {"compound": "CCCCC(=O)N1CC2(CC2)C[C@H]1C(=O)N[C@@H](C[C@@H]1CCNC1=O)C(=O)COC(F)(F)F", "note": "[Compound 618, (S)-N-((S)-3-oxo-1-((S)-2-oxopyrrolidin-3-yl)-4-(trifluoromethoxy)butan-2-yl)-5-pentanoyl-5-azaspiro[2.4]heptane-6-carboxamide]", "EC50": "0.05 to 0.2"}
    ]}
  ]
}
